From patent US6355632B1, “Naphthyl compounds, intermediates, compositions, and methods” (Eli Lilly and Company, priority 1995, dated 2002)
Structures can show the parent of a compound that is named as a salt.

COc1ccc(-c2ccc3cc(OC)ccc3c2Oc2ccc(OCCN3CCCCC3)cc2)cc1 (as salt: hydrochloride) [Example 4, 1-[4-[2-(1-piperdinyl)ethoxy]phenoxy]-2-(4-methoxyphenyl)-6-methoxynaphthalene hydrochloride]
melting point: 184 to 188 °C
